One may read the IC50 as the concentration that inhibits the measured activity by half. Read a high IC50 as weaker potency. In general, logP refers to the decadic logarithm of the partition coefficient of the neutral form, usually between octanol and water. A lower logP goes with lower lipophilicity.

Among the data in ChEMBL document CHEMBL1146615, “Heterocyclic thrombin inhibitors. Part 2: quinoxalinone derivatives as novel, potent antithrombotic agents” (Bioorg Med Chem Lett, 2003) are ED200, IC50 and logP values, retold here.

The species entered for one data set is Homo sapiens. Kind of data set: Antithrombotic activity by measuring the activated partial thromboplastin time(aPPT) in human plasma. The class given is functional.
A further data set has as its target Coagulation factor X (Homo sapiens, UniProt P00742). Kind of data set: Inhibition of coagulation factor X.
In another data set the target is Plasminogen (Homo sapiens, UniProt P00747). Kind of data set: Inhibition of plasmin.
Plasminogen, sequence (P00747 97-580 limits assumed): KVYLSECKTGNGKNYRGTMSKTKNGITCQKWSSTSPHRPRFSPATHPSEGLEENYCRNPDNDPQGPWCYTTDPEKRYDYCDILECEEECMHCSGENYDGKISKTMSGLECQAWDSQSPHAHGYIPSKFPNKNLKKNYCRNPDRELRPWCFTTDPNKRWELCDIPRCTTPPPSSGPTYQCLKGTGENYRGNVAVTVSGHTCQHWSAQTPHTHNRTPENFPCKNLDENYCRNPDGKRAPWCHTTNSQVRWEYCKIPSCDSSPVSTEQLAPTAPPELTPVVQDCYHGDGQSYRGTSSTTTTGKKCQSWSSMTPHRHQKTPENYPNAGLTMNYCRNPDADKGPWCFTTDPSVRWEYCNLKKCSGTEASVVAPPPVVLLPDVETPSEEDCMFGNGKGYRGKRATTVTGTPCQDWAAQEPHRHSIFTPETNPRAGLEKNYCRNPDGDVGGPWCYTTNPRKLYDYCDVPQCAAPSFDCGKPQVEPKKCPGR
Plasminogen, sequence (P00747 581-810 limits assumed): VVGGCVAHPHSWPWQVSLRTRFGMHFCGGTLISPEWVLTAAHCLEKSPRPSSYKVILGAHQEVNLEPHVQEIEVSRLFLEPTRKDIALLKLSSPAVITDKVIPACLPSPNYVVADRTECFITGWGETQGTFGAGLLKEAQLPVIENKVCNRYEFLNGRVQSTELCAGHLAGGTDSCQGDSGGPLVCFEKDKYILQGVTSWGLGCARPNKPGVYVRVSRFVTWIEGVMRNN
The nature of data set [1]: Inhibition of bovine trypsin. Also noted: species or system Bos taurus.
For the next data set, the target named is Prothrombin (Homo sapiens, UniProt P00734). Kind of data set: Inhibition of human thrombin.
Data set [2] can be described thus: Partition coefficient (logP). It counts as physicochemical. The following applies: octanol/water.

Each structure is given as a SMILES string.

Coagulation factor X, sequence (P00742 41-179 limits assumed): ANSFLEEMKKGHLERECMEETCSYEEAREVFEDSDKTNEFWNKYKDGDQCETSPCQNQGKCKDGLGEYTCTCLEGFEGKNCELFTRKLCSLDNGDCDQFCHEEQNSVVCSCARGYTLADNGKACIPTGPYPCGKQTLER
Coagulation factor X, sequence (P00742 235-488 limits assumed): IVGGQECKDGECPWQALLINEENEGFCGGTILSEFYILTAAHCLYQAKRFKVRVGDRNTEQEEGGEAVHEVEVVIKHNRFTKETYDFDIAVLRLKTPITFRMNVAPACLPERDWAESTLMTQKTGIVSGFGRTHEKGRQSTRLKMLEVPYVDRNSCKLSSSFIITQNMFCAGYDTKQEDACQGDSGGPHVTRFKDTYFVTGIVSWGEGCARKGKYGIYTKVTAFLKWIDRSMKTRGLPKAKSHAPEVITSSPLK

Turning to `Cn1c(=O)c(Cc2ccc(C(=N)N)cc2)nc2cc(C3(C(=O)N4CCCC4CO)CC3)ccc21` (centres undefined), the ED200 in the data set filed under Homo sapiens stood at 0.21 µM. Moreover, the IC50 stood at 1400 nM against Coagulation factor X, 72000 nM against Plasminogen, 850 nM in data set [1] and 13 nM at Prothrombin.

Turning to `Cn1c(=O)c(Cc2ccc(C(=N)N)cc2)nc2cc(C(C)(C)C(=O)N3CCNCC3)ccc21`, the ED200 in the data set filed under Homo sapiens stood at 0.71 µM. Besides, the IC50 against Coagulation factor X was found to be 31000 nM; on Prothrombin it was 68 nM.

In the data set filed under Homo sapiens, `CCOC(=O)C1(c2ccc3c(c2)nc(Cc2ccc(C(=N)N)cc2)c(=O)n3C)CC1` had an ED200 of 0.67 µM. Moreover, the IC50 at Coagulation factor X is 46000 nM; against Plasminogen it was 69000 nM; in data set [1], 580 nM; on Prothrombin, 27 nM.

In the case of `CN(C)C(=O)C(C)(C)c1ccc2c(c1)nc(Cc1ccc(C(=N)N)cc1)c(=O)n2C`, the ED200 in the data set listed under Homo sapiens stood at 0.41 µM. Also, the IC50 was 9200 nM at Coagulation factor X, > 100000 nM against Plasminogen, 9500 nM in data set [1] and 16 nM against Prothrombin.

For `Cn1c(=O)c(Cc2ccc(C(=N)N)cc2)nc2cc(C3(C(=O)O)CC3)ccc21`, the ED200 in the data set filed under Homo sapiens is >10 µM. Also, the IC50 on Coagulation factor X is > 100000 nM.

As to `Cn1c(=O)c(Cc2ccc(C(=N)N)cc2)nc2cc(C3(C(=O)N4CCCC4)CC3)ccc21`, the ED200 in the data set filed under Homo sapiens was 0.095 µM. Half-maximal inhibition against Plasminogen (IC50) required 66000 nM. This molecule also yielded a logP in data set [2] of 1.5.

Consider `Cn1c(=O)c(Cc2ccc(C(=N)N)cc2)nc2cc(C(C)(C)C(=O)N3CCCCC3)ccc21`, for which the ED200 in the data set listed under Homo sapiens was 0.25 µM. Further, the IC50 against Coagulation factor X is 400 nM; against Plasminogen, 60000 nM; in data set [1], 2200 nM; against Prothrombin it was 8 nM.

Molecule `CC1CCCN(C(=O)C(C)(C)c2ccc3c(c2)nc(Cc2ccc(C(=N)N)cc2)c(=O)n3C)C1` (centres undefined) showed an ED200 in the data set listed under Homo sapiens of 0.12 µM. Also, the IC50 on Coagulation factor X is 590 nM; on Prothrombin, 12 nM.

As to `Cn1c(=O)c(Cc2ccc(C(=N)N)cc2)nc2cc(C3(N(C(=O)CC(=O)O)C4CCCC4)CC3)ccc21`, the ED200 in the data set filed under Homo sapiens worked out at 0.45 µM. Also, the IC50 against Coagulation factor X is 3000 nM; at Plasminogen, 36000 nM; in data set [1], 550 nM; against Prothrombin it was 15 nM.

In the case of `CCOC(=O)C(C)(C)c1ccc2c(c1)nc(Cc1ccc(C(=N)N)cc1)c(=O)n2C`, the ED200 in the data set listed under Homo sapiens was determined as 0.43 µM. The IC50 amounted to 10600 nM against Coagulation factor X, 75000 nM on Plasminogen, 410 nM in data set [1] and 10 nM at Prothrombin. The molecule further registered a logP in data set [2] of 0.5.

`CCOC(=O)C(C)(C)c1ccc2c(C)cc(Oc3ccc(C(=N)N)cc3)nc2c1`: the ED200 in the data set listed under Homo sapiens came to 0.94 µM. Besides, the IC50 at Coagulation factor X amounted to 12100 nM; in data set [1] it was 2400 nM. The logP in data set [2] worked out at 1.7.

As to `CCOC(=O)C1(c2ccc3c(C)cc(Oc4ccc(C(=N)N)cc4)nc3c2)CCCC1`, the values for the IC50 (in data set [1]; against Prothrombin) were 560 nM and 30 nM, respectively.

Molecule `Cn1c(=O)c(Cc2ccc(C(=N)N)cc2)nc2cc(C3(C(=O)N4CCCC4C(=O)NCC(=O)O)CC3)ccc21` (centres undefined) came in with an ED200 in the data set listed under Homo sapiens of 0.91 µM. For the same molecule, the IC50 against Coagulation factor X was > 100000 nM; at Plasminogen, 68000 nM; in data set [1], 2400 nM; against Prothrombin, 190 nM.

The molecule `Cn1c(=O)c(Cc2ccc(C(=N)N)cc2)nc2cc(C(C)(C)C(=O)N3CCCC3)ccc21` had an ED200 in the data set listed under Homo sapiens of 0.16 µM. Moreover, the IC50 on Coagulation factor X was found to be 500 nM; against Plasminogen it was 53000 nM; in data set [1], 320 nM; against Prothrombin, 5 nM. Besides, the logP in data set [2] turned out to be 1.
